In experiment [1] the test system is RET-expressing reporter cell line (RET alone). Nature of the experiment: Reporter-gene luciferase activity assay, dose-response (FIG. 5). The format is cell-based. Conditions: cells expressing RET alone; 1-50 μM, 24 h. As to the method:
Generation of stable cell lines. MG87RET murine fibroblast were plated on […] dishes and transfected with 4 μg of G4-Luc, Gal4-Elk (Baloh et al., 2000) and GFRα1 expressing plasmid (“αLUC” cells) or empty vector (“NOα” cells) containing neomycin-resistance gene in ratio 4:1:1 using Lipofectamine 2000 (Invitrogen) for DNA delivery as described by manufacturer. The following day, cells were trypsinized and plated in low density on 10-cm tissue culture dishes. Stable transformants were selected in the presence of 500-750 μg/ml geneticin (Invitrogen). Established cell lines were maintained in DMEM, 10% fetal bovine serum (FBS), 100 μg/ml Normocin (Invivogene), 2 μg/ml of puromycin, 500 μg/ml of geneticin, 15 mM HEPES, pH 7.2. Pathdetect Elk-1 system and human GFRα1-expressing plasmid (“Strat-Luc” cells) or empty vector (control cell line “NOStratis”) cells were selected and maintained in the DMEM, 10% FBS, 100 μg/ml Normocin (Invivogene), 2 μg/ml of puromycin, 500 μg/ml of G418, 2 μg/ml of blasticidin S, 15 mM HEPES, pH 7.2.
(§1) Cells were plated on 96-well plates (or 384-well) in cell density 20 000 (or 5 000 for 384-well format) cells per well in DMEM, 10% FBS, 100 μg/ml Normocin, 2 μg/ml puromycin, 500 μg/ml of G418, 15 mM HEPES, pH 7.2 one day before assay. The following day, the compounds were added to a final concentration of 1-50 μM. Structures of the compounds are shown in the description of FIG. 5, above. Cells were allowed to produce luciferase for 24 h, then lysed in 20 μl of 1×Cell culture lysis reagent (Promega) and freeze-thawed once to ensure complete lysis. Then 5 μl of the lysate was mixed (on ice) with 20 μl of luciferase assay substrate (Promega) in a well of black Isoplate (PerkinElmer). Luminescence was counted on MicroBeta 2 counter (PerkinElmer) twice. Data are presented as fold induction, where the corresponding concentration of DMSO was used as a reference.

In experiment [2] the test system is GFRα3/RET-expressing reporter cell line. The experiment is described as above. The format is cell-based, human. As to conditions: GFRα3/RET cells; 1-50 μM, 24 h.
Source text: Full-length flag-tagged rat Gfrα1 cDNA (Leppänen et al., 2004) subcloned into in pcDNA3 (Invitrogen). Full-length human GFRα1 cDNA (Sidorova et al., unpublished) subcloned in pcDNA6 (Invitrogen). Full-length human GFRα3 cDNA (Wang et al., 2006). Full-length human RET (long isoform) (Runeberg-Roos et al., 2007) in pCR3.1 (Invitrogen). The MAPK activation detection system (Baloh et al., 2000) and PathDetect Elk-1 (Stratagene) both of which include two plasmids. First one constitutively expresses MAPK pathway specific fusion transactivator, that consists of activation domain of Elk-1 and DNA-binding domain of the yeast GAL4 protein (Gal4-Elk1). The other plasmid, Gal4-Luc, carries luciferase gene under the control of a synthetic promoter containing the yeast GAL4 binding sequences.
as §1

The structures appear in SMILES notation.

`CCN(CC)S(=O)(=O)c1ccc(OC)c(N2CCN(C(=O)c3cc(F)ccc3C(F)(F)F)CC2)c1` [BT13]: the “induction of luciferase expression” value is listed as “No significant effect” in experiment [1] and “in a dose-dependent manner induce luciferase expression” in experiment [2].
For `COc1ccc(S(=O)(=O)N2CCc3ccccc3C2)cc1N1CCN(C(=O)c2cc(F)ccc2C(F)(F)F)CC1` [BT16], in that order: “No significant effect” and “in a dose-dependent manner induce luciferase expression”.

The record behind these values is patent publication US8901129B2, “Methods of facilitating neural cell survival using GDNF family ligand (GFL) mimetics or RET signaling pathway activators” (GeneCode AS, priority 2009, dated 2014).
